# Data: PMC13249053, “Mechanism of auranofin toxicity: Inhibition of tetrahydrobiopterin metabolism” (Toxicology and applied pharmacology, 2025)
# “Also recorded” adds a separate entry of the source.
# System: catecholamine and monoamine production in PC12 cells
# Experiment: Catecholamine and monoamine production in PC12 cells (HPLC, electrochemical detection)
# Assay type: cell-based, rat
# Details: auranofin 0.04–2.5 μM
# Protocol: Catecholamine and monoamine production in PC12 cells were assayed as previously described ([Yang et al., 2015]). Briefly, cells grown in 10-cm culture dishes were treated in the absence or presence of auranofin (0.04–2.5 μM) in 10 ml of growth medium without FBS. After 24 h, the cells were removed from the plates, washed with phosphate-buffered saline, and centrifuged (1500 g, 10 min). Cell pellets (~8 × 10^6 cells) were resuspended in 1 ml of 0.1 N perchloric acid containing 200 μM EDTA and 350 μM sodium metabisulfite and sonicated on ice. Ly-sates were centrifuged (20,000 g, 10 min) and clear supernatants filtered using 0.22-μm filters. Extracts were then analyzed for neurotransmitters and their metabolites using a Waters 2695 high-performance liquid chromatography system (Waters Corp., Milford, MA) fitted with a cation exchange column (MD-150 3.2 × […] column; ESA Biosciences, Inc., Chelmsford, MA) using an isocratic mobile phase (MD-TM mobile phase; ESA Biosciences Inc.) containing 2.2 mM NaCl pumped at constant flow rate of 0.5 ml/min. Compounds were quantified by electrochemical detection using a glassy carbon working electrode (2 mm in diameter) with an in situ silver reference electrode (flow cell, 2 mm GC WE, ISAAC; Waters Corp.) ([Yochum et al., 2014]).
# Fig. 9. […] Cells were analyzed for BH2 and BH4 as described in the Materials and Methods. […]
smiles,measurement,value
"CC[PH](CC)(CC)[Au][S][C@@H]1O[C@H](COC(C)=O)[C@@H](OC(C)=O)[C@H](OC(C)=O)[C@H]1OC(C)=O [auranofin, 2,3,4,6-tetra-O-acetyl-1-thio-β-D-glucopyranosato-S-triethyl phosphine gold]","production of monoamines (serotonin, dopamine) and their metabolites (5HIAA, DOPAC, HVA)",concentration-dependent inhibition; also recorded: significantly reduced
